Laboratory results reported in ChEMBL document CHEMBL1125730, “Dual inhibitors of thromboxane A2 synthase and 5-lipoxygenase with scavenging activity of active oxygen species. Synthesis of a novel series of (3-pyridylmethyl)benzoquinone derivatives” (J Med Chem, 1991).

Key:
physchem = settings: octanol/water
Description: Partition coefficient (logP)

[1] = molecular target: T1, Thromboxane-A synthase (Rattus norvegicus) (UniProt P49430); assay: Inhibition of rat thromboxane A2 synthase evaluated as percent inhibition of thromboxane B2 formation after 24 hr of administration at 10 mg/kg.; format: functional, organism-based; design: dose 10 mg/kg
T1 sequence (whole entry): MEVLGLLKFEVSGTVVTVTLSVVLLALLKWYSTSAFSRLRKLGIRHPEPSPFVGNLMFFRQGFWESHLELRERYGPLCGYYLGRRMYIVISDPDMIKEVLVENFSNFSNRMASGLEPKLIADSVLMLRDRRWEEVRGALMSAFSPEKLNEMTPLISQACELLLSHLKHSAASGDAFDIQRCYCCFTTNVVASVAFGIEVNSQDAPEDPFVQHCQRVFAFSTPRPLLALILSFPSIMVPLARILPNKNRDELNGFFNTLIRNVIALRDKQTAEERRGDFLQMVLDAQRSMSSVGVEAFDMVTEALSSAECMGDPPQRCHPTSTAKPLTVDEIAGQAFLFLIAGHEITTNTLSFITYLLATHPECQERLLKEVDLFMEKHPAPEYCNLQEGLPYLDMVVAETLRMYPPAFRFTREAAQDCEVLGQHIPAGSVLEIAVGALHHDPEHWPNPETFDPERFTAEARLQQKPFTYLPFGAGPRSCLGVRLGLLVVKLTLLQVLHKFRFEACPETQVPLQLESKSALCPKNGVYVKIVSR

[2] = molecular target: T2, Polyunsaturated fatty acid 5-lipoxygenase (Rattus norvegicus, UniProt P12527)
T2 sequence (P12527 whole entry): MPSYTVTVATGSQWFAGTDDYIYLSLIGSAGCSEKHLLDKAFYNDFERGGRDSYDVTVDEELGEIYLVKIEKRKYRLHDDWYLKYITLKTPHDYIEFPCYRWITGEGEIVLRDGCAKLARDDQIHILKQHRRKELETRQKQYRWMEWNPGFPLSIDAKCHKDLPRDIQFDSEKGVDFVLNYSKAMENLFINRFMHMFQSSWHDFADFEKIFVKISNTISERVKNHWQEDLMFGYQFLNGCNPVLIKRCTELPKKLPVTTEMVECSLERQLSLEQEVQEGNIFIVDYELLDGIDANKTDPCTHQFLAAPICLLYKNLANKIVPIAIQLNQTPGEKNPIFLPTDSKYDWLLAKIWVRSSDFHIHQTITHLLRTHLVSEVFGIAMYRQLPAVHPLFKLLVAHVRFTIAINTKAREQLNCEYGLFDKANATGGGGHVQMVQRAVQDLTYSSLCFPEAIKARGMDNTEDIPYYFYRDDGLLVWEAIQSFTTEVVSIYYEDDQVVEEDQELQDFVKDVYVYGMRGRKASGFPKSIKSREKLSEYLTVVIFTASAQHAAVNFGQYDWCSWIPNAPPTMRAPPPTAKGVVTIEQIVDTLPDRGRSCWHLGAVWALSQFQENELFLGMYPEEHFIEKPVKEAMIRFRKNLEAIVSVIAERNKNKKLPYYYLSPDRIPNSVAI

[3] = molecular target: T3, Thromboxane-A synthase (Homo sapiens) (UniProt P24557); assay: Inhibitory activity of compound against thromboxane A2 synthase evaluated as percent inhibition of thromboxane B2 formed by incubating PGH-2 with horse platelet microsomes; format: functional; settings: Equus caballus; target entry is the homologue from another species; concentration not given here
T3 sequence (whole entry): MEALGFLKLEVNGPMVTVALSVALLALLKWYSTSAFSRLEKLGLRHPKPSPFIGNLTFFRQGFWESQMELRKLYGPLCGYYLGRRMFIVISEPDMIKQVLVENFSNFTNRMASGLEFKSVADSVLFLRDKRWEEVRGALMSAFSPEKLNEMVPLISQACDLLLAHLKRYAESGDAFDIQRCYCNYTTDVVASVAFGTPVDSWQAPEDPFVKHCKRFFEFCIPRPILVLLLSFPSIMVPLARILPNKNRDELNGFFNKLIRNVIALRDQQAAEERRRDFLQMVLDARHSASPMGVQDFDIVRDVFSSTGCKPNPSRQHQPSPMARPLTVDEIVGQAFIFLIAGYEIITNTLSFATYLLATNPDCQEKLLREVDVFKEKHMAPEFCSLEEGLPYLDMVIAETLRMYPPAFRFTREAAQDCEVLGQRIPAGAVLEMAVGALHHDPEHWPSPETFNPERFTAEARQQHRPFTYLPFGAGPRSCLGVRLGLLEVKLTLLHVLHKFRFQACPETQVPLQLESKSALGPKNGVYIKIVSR

Rattus norvegicus [4] = assay: Protective effect was evaluated by measuring the urinary total protein by peroral administering 10 mg/kg per day for four weeks in 8 rats; format: functional, Urine; settings: route oral
Rattus norvegicus [5] = assay: Protective effect was evaluated by measuring the urinary albumin by peroral administering 10 mg/kg per day for four weeks in 8 rats; format: functional, Urine; settings: route oral
[6] = molecular target: T3, Thromboxane-A synthase (Homo sapiens); assay: Inhibitory activity of compound against thromboxane A2 synthase evaluated as percent inhibition of thromboxane B2 formation after 24 hr of administration of 10 mg/kg of compound in rat; format: functional, organism-based; design: dose 10 mg/kg
Equus caballus = species on record: Equus caballus; assay: The concentration required to reduce by 50% the amount of LTB4 formed by RBL-1 cells; format: functional, organism-based
RBL-1 = assay: cells; settings: Rattus norvegicus
Rattus norvegicus [7] = assay: Protective effect was evaluated by measuring the urinary albumin by peroral administering 100 mg/kg per day for four weeks in adriamycin induced proteinuria 7 rats for four weeks.; format: functional, Urine; settings: route oral
Rattus norvegicus [8] = assay: Protective effect was evaluated by measuring the urinary total protein by peroral administering 100 mg/kg per day for four weeks in adriamycin induced proteinuria in 7 rats for four weeks.; format: functional, Urine; settings: route oral
Rattus norvegicus [9] = assay: Compound was evaluated […] for percent inhibition of lipid peroxidation in rat brain homogenates at 10e-6 M; format: functional
Rattus norvegicus [10] = assay: Protective effect was evaluated by measuring the urinary total protein by peroral administering 100 mg/kg per day for four weeks in 7 rats for four weeks.; format: functional, Urine; settings: route oral

SMILES | logP (physchem) | inhibition [1] [%] | IC50 [2] [nM] | other results
CC1=C(C)C(=O)C(C(CCCCC(=O)O)c2cccnc2)=C(C)C1=O (centres undefined) | 0.85 | 64 | 60000 | 
CC1=C(C)C(=O)C(C(C)c2cccnc2)=C(C)C1=O (centres undefined) | 2.85 | 90 | 9500 | inhibition [3]: 89%
CC(=O)OCCCCCC(C1=C(C)C(=O)C(C)=C(C)C1=O)c1cccnc1 (centres undefined) | 4.58 |  | 87 | inhibition [6]: 84%
CCCCC/C=C(\C1=C(C)C(=O)C(C)=C(C)C1=O)c1cccnc1 | 5.05 |  |  | IC50 (Equus caballus): 220 nM
CCCCC/C=C(/C1=C(C)C(=O)C(C)=C(C)C1=O)c1cccnc1 | 5.05 |  |  | IC50 (RBL-1): 260 nM
CC(=O)OCCCCC(C1=C(C)C(=O)C(C)=C(C)C1=O)c1cccnc1 (centres undefined) | 4.08 |  | 250 | inhibition [6]: 37%
CC1=C(C)C(=O)C(C(c2cccnc2)c2cccc(CCC(=O)O)c2)=C(C)C1=O (centres undefined) | 2.08 |  | 100000 | 
CC1=C(C)C(=O)C(C(CCCCCC(=O)O)c2cccnc2)=C(C)C1=O (centres undefined) | 1.35 | 90 | 9300 | 
CC1=C(C)C(=O)C(CCCCC#CCCCC#CCO)=C(C)C1=O [DOCEBENONE] |  |  | 90 | Albumin (Rattus norvegicus [7]): 49 mg 100g-1 24hr-1; Total protein (Rattus norvegicus [8]): 95 mg 100g-1 24hr-1
CCCCCCC(C1=C(C)C(=O)C(C)=C(C)C1=O)c1cccnc1 (centres undefined) | 5.35 | 70 | 73 | 
CCCCC(C1=C(C)C(=O)C(C)=C(C)C1=O)c1cccnc1 (centres undefined) | 4.35 | 97 | 830 | 
CC1=C(C)C(=O)C(C(CCCCO)c2cccnc2)=C(C)C1=O (centres undefined) | 3.19 | 40 | 100 | 
CCCCCCCCCCCCCCCCCCOC1=C(O)[C@@H](C(O)CO)OC1=O (some centres undefined) |  |  |  | Albumin (Rattus norvegicus [7]): 70 mg 100g-1 24hr-1; Total protein (Rattus norvegicus [8]): 122 mg 100g-1 24hr-1
CC1=C(C)C(=O)C(C(CCCCCO)c2cccnc2)=C(C)C1=O (centres undefined) | 3.69 |  | 100 | inhibition [6]: 72%
O=C(O)CCCC/C=C(\c1ccccc1)c1cccnc1 [(E)-ISBOGREL] |  | 90 |  | Albumin (Rattus norvegicus [7]): 75 mg 100g-1 24hr-1; Total protein (Rattus norvegicus [10]): 131 mg 100g-1 24hr-1
CC1=C(C)C(=O)C(C(CCCCCCC(=O)O)c2cccnc2)=C(C)C1=O (centres undefined) | 1.85 | 97 | 7000 | 

Now from value to molecule, other results behind:

logP (physchem) | inhibition [1] [%] | IC50 [2] [nM] | SMILES | other results
2.77 | 92 | 82 | CC1=C(Cc2cccnc2)C(=O)c2ccccc2C1=O | 
2.55 | 86 | 62 | CC1=C(C)C(=O)C(Cc2cccnc2)=C(C)C1=O | Total protein (Rattus norvegicus [4]): 60 mg 100g-1 24hr-1; Albumin (Rattus norvegicus [5]): 39 mg 100g-1 24hr-1
3.35 | 75 | 660 | CCC(C1=C(C)C(=O)C(C)=C(C)C1=O)c1cccnc1 (centres undefined) | 
-0.95 | 90 | 8800 | CC1=C(/C=C/C(=O)O)C(=O)C(C)=C(Cc2cccnc2)C1=O | 
3.28 | 80 | 8 | CCOC(=O)/C=C/C1=C(C)C(=O)C(Cc2cccnc2)=C(C)C1=O | 
0.35 |  |  | CC1=C(C)C(=O)C(C(CCCC(=O)O)c2cccnc2)=C(C)C1=O (centres undefined) | Inhibition (Rattus norvegicus [9]): 37%; IC50 (Equus caballus): 10000 nM
1.05 | 91 | 7200 | CC1=C(C)C(=O)C(/C(=C/CCCCC(=O)O)c2cccnc2)=C(C)C1=O | 
-0.65 | 73 | 8700 | CC1=C(/C=C(\C)C(=O)O)C(=O)C(C)=C(Cc2cccnc2)C1=O | 
0.61 | 74 |  | COC1=C(OC)C(=O)C(Cc2cccnc2)=C(C)C1=O | 
-0.65 | 86 | 5000 | CC1=C(CCC(=O)O)C(=O)C(C)=C(Cc2cccnc2)C1=O | 
2.08 | 19 | 100000 | CC1=C(C)C(=O)C(C(c2cccnc2)c2cccc(/C=C(\C)C(=O)O)c2)=C(C)C1=O (centres undefined) | 
